Measured values from ChEMBL document CHEMBL6092168, “Identification of novel indolinone derivatives as CTSC inhibitors to treat inflammatory bowel disease by modulating inflammatory factors” (Eur J Med Chem, 2024).
The source made the active and inactive calls. The rule behind the calls is not given here.

Assays:
RAW264.7 [1] = assay: Anti-inflammatory activity in LPS-stimulated mouse RAW264.7 cells assessed as reduction in IL-6 production incubated for 24 hrs by ELISA; assay type: functional, cell-based; settings: dose 0.62-5 µM
Mus musculus [2] = assay: Anti-inflammatory activity in DSS-induced ulcerative colitis male C57BL/6 mouse model assessed as reduction in Cathepsin C level in colon at 15 to 30 mg/kg administered via gavage for 10 days; assay type: functional, organism-based; settings: dose 15-30 mg/kg, time 10.0 day
[3] = molecular target: T1, Dipeptidyl peptidase 1 (Mus musculus) (UniProt P97821); assay: In vivo inhibition of Cathepsin C in C57BL/6 mouse assessed as reduction in cathepsin C activity in bone marrow administered orally once daily for 6 days by fluorescence based microplate reader; assay type: functional, organism-based; settings: dose 5-30 mg/kg, route po, time 6.0 day
T1 sequence (whole entry): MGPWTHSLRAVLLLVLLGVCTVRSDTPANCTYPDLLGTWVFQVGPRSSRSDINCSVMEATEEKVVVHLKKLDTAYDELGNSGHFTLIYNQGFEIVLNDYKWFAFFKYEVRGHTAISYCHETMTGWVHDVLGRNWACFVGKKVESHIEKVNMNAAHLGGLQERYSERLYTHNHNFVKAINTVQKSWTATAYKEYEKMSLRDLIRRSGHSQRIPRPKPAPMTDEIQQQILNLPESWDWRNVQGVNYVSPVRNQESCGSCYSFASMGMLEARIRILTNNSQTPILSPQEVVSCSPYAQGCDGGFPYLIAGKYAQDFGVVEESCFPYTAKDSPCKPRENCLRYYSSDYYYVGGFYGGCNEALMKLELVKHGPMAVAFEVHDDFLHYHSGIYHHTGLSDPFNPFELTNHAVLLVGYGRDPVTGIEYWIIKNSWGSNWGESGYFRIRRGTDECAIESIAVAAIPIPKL

[4] = molecular target: T2, Cathepsin G (Mus musculus) (UniProt P28293); assay: Induction of Cathepsin G degradation in C57BL/6 mouse bone marrow cells assessed as remaining activity at 10 uM incubated for 12 hrs by Western blot analysis relative to control; assay type: cell-based; settings: Bone marrow cell
T2 sequence (whole entry): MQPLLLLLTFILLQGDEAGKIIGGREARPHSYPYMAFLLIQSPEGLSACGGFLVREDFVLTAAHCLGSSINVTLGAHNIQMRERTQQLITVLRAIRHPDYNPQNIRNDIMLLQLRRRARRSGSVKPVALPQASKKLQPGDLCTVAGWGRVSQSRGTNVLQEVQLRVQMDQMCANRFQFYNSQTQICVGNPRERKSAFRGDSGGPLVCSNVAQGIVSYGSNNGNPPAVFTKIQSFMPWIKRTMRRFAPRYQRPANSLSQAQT

[5] = molecular target: T3, Myeloblastin (Mus musculus) (UniProt Q61096); assay: Induction of proteinase 3 degradation in C57BL/6 mouse bone marrow cells at 10 uM incubated for 24 hrs by Western blot analysis; assay type: cell-based; settings: Bone marrow cell
T3 sequence (whole entry): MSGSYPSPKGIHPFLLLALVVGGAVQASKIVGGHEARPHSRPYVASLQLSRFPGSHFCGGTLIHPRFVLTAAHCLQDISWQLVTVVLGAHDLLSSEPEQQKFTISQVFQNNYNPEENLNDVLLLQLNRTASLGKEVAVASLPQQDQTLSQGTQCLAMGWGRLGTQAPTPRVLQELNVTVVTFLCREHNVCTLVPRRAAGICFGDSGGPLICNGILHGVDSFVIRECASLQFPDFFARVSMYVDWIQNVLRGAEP

[6] = MRT in male Sprague-Dawley rat at 2 mg/kg, iv measured at 5 to 1440 mins by LC-MS/MS analysis; assay type: ADME, organism-based; settings: in vivo, time 5-1440 min
Mus musculus [7] = assay: Anti-inflammatory activity in DSS-induced ulcerative colitis male C57BL/6 mouse model assessed as reduction in IL-1 beta expression in colon administered via gavage for 10 days by ELISA; assay type: functional, organism-based; settings: dose 15-60 mg/kg, time 10.0 day
[8] = molecular target: T1, Dipeptidyl peptidase 1 (Mus musculus); assay: In vivo inhibition of Cathepsin C in C57BL/6 mouse assessed as reduction in cathepsin C activity in bone marrow at 15 mg/kg, po administered once daily for 6 days by fluorescence based microplate reader relative to control; assay type: functional, organism-based; settings: time 6.0 day
[9] = molecular target: T4, Neutrophil elastase (Mus musculus) (UniProt Q3UP87); assay: In vivo inhibition of neutrophil elastase in C57BL/6 mouse assessed as reduction in neutrophil elastase activity in blood administered orally once daily for 6 days by fluorescence based microplate reader; assay type: functional, organism-based; settings: dose 5-30 mg/kg, route po, time 6.0 day
T4 sequence (whole entry): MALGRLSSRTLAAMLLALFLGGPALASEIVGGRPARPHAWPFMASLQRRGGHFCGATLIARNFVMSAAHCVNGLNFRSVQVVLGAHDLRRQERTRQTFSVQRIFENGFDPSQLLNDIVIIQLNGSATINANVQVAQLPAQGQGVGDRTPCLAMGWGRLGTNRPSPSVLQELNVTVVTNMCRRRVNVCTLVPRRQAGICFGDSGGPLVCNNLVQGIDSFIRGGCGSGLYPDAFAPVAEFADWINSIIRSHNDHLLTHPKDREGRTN

RAW264.7 [10] = assay: Anti-inflammatory activity in LPS-stimulated mouse RAW264.7 cells assessed as reduction in TNF-alpha production incubated for 24 hrs by ELISA; assay type: functional, cell-based; settings: dose 0.62-5 µM
Dipeptidyl peptidase 1 = Dipeptidyl peptidase 1 (Homo sapiens, UniProt P53634); assay: Inhibition of Cathepsin C in human U-937 cells using H-Gly-Arg-AMC as substrate at 10 uM incubated for 5 days by fluorescence based microplate reader analysis relative to control; assay type: cell-based; settings: time 5.0 day
[11] = Half life in male Sprague-Dawley rat at 10 mg/kg, po measured at 5 to 1440 mins by LC-MS/MS analysis; assay type: ADME, organism-based; settings: in vivo, time 5-1440 min
[12] = Acute toxicity in ICR mouse assessed as heart pathological change at 1500 mg/kg, po administered daily for 7 days by H and E staining based analysis; assay type: organism-based; settings: in vivo, 168 h, time 7 day
[13] = molecular target: T4, Neutrophil elastase (Mus musculus); assay: In vivo inhibition of neutrophil elastase in C57BL/6 mouse assessed as reduction in neutrophil elastase activity in bone marrow at 30 mg/kg, po administered once daily for 6 days by fluorescence based microplate reader relative to control; assay type: functional, organism-based; settings: time 6.0 day
Mus musculus [14] = assay: Anti-inflammatory activity in DSS-induced ulcerative colitis male C57BL/6 mouse model assessed as decrease in body weight loss at 15 mg/kg administered via gavage for 10 days; assay type: functional, organism-based; settings: time 10.0 day
[15] = Oral bioavailability in male Sprague-Dawley rat at 10 mg/kg measured at 5 to 1440 mins by LC-MS/MS analysis; assay type: ADME, organism-based; settings: in vivo, time 5-1440 min
Mus musculus [16] = assay: Anti-inflammatory activity in DSS-induced ulcerative colitis male C57BL/6 mouse model assessed as reduction in neutrophil elastase level in colon at 15 to 30 mg/kg administered via gavage for 10 days; assay type: functional, organism-based; settings: dose 15-30 mg/kg, time 10.0 day
RAW264.7 [17] = assay: Anti-inflammatory activity in LPS-stimulated mouse RAW264.7 cells assessed as reduction in GM-CSF production incubated for 24 hrs by ELISA; assay type: functional, cell-based; settings: dose 0.62-5 µM
Mus musculus [18] = assay: Anti-inflammatory activity in DSS-induced ulcerative colitis male C57BL/6 mouse model assessed as reduction in proteinase 3 level in colon at 15 to 30 mg/kg administered via gavage for 10 days; assay type: functional, organism-based; settings: dose 15-30 mg/kg, time 10.0 day
[19] = molecular target: T2, Cathepsin G (Mus musculus); assay: In vivo inhibition of Cathepsin G in C57BL/6 mouse assessed as reduction in cathepsin G activity in blood at 30 mg/kg, po administered once daily for 6 days by fluorescence based microplate reader relative to control; assay type: functional, organism-based; settings: time 6.0 day

Dipeptidyl peptidase 1, sequence (P53634 25-134 limits assumed): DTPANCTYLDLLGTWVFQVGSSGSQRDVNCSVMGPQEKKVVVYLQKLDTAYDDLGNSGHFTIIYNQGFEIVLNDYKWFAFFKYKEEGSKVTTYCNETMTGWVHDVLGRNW
Dipeptidyl peptidase 1, sequence (P53634 231-394 limits assumed): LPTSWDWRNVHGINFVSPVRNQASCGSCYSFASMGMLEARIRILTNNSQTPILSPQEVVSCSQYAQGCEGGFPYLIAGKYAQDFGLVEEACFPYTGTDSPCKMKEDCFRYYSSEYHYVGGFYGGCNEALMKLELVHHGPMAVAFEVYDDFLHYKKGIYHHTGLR
Dipeptidyl peptidase 1, sequence (P53634 395-463 limits assumed): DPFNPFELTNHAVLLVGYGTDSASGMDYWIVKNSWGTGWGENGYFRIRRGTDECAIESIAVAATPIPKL

O=C1Nc2c(cccc2-c2ccc(NC3CCOCC3)cc2)/C1=C/c1ccnc2ccccc12
Activity (RAW264.7 [1]): Dose-dependent-effect
Activity (Mus musculus [2]): inactive
inhibition [3]: Dose-dependent-effect
Activity [4]: 75%
Activity [5]: Active
MRT [6]: 10.48 h
Activity (Mus musculus [7]): Dose-dependent-effect; Significant Reduction Observed In High Dose Group
inhibition [8]: < 50%
inhibition [9]: Dose-dependent-effect
Activity (RAW264.7 [10]): Dose-dependent-effect
inhibition (Dipeptidyl peptidase 1): 14.9%
half-life [11]: 1.76 h
Activity [12]: Non-toxic
inhibition [13]: 59.1%
Activity (Mus musculus [14]): Active; Weight Loss Was Lower Than In Mesalazine Group
F [15]: 29.05%
Activity (Mus musculus [16]): inactive
Activity (RAW264.7 [17]): Dose-dependent-effect
Activity (Mus musculus [18]): inactive
inhibition [19]: 39.5%
